The source of these data is patent US12370175B2, “Glucocorticoid receptor modulators to treat pancreatic cancer” (Corcept Therapeutics, Inc., priority 2016, dated 2025).

Data set [1] relates to metastatic adenocarcinoma of the pancreas. Briefly: Clinical study of CORT125134 with nab-paclitaxel in a patient with advanced pancreatic cancer (Example 4). The data set is classed as in vivo, human. As for the experimental part: A patient with a diagnosis of metastatic adenocarcinoma of the pancreas participated in a clinical study evaluating the efficacy of daily administration of 100 mg of the GR antagonist CORT125134 in combination with nab-paclitaxel infusions weekly for three out of four weeks per cycle. A tumor tissue sample obtained during or prior to the patient's previous treatments was found by immunohistochemistry to have high GR expression, with 90 percent of the cells staining for GR and with a large percentage staining with high intensity. Prior to receiving this combined GR antagonist and nab-paclitaxel treatment, the patient had previously received treatment with multiple lines of chemotherapy: gemcitabine monotherapy; eight months of combination chemotherapy treatment with 5-fluorouracil, leucovorin, irinotecan and oxaliplatin (FOLFIRINOX treatment); five months of treatment with gemcitabine combined with nab-paclitaxel; and four months of combination chemotherapy treatment with 5-fluorouracil, leucovorin, and irinotecan hydrochloride (FOLFIRI treatment). These prior treatments were unsuccessful: the patient's cancer progressed despite these prior chemotherapy treatments.
This patient has so far received 8 months (8 cycles) of the combined treatment of daily 100 mg CORT125134 in combination with nab-paclitaxel infusions weekly for three out of four weeks per cycle. […] When scanned again one month later, the tumor volume was still reduced by approximately 40% compared to baseline volume, thus confirming the PR status. […] The patient remains on the treatment, and continues to tolerate the treatment well.

The test system of data set [2] is Human Pancreatic carcinoma cells (MIA-PaCa-2). The data set is described as follows: MIA-PaCa-2 xenograft tumor growth in mice, SGRM combined with paclitaxel. The data set is classed as in vivo, mice (Balbc/c nude). To be noted: SGRM 30 mg/kg orally on day prior to and same day as paclitaxel 7.5 mg/kg intravenously Q4D; MIA-PaCa-2 subcutaneous tumors. As for the experimental part: Human Pancreatic carcinoma cells (MIA-PaCa-2) were purchased from the American Type Cell Collection (ATCC). The cells were grown in Dulbecco's Modified Eagle's Medium (DMEM) containing 10% (v/v) heat inactivated fetal calf serum and 2.5% horse serum at 37° C. Suspensions of the cells were injected subcutaneously into the left flank of 5-6 week old immunocompromised female mice (Balbc/c nude), 3 million cells per mouse. Tumors were allowed to grow until they reach a volume of 100-200 cubic millimeters (mm^3). Mice were then grouped into four groups, ten (10) per group, and treated with compounds or vehicle as follows. Vehicle or paclitaxel was administered intravenously and SGRMs, i.e., CORT25134 and CORT125281, were administered orally. SGRMs were administered in vehicle ((10% dimethyl sulfoxide (DMSO), 0.1% Tween 80 (polyethylene glycol sorbitan monooleate (polysorbate 80)) and 89.9% hydroxypropyl methylcellulose (HPMC) (0.5%)). Group 1 was dosed with the compound vehicle (10% DMSO, 0.1% Tween 80 and 89.9% HPMC (0.5%)) daily. Group 2 was dosed with paclitaxel at 7.5 mg/kg, every four days (“Q4D”). Group 3 was dosed with both paclitaxel at 7.5 mg/kg Q4D and CORT125134 at 30 mg/kg on the day prior to and the same day as the day paclitaxel was administered. Group 4 was dosed with both paclitaxel at 7.5 mg/kg Q4D and CORT125281 at 30 mg/kg on the day prior to and the same day as the day paclitaxel was administered.
The longest (L) and shortest (S) diameters of the tumors were measured three times a week with electronic calipers and tumor volume was calculated using the formula […], where a and b are the long and short diameters of the tumor, respectively. The tumor growth data are shown in The FIGURE, in which the mean tumor volume as compared to the mean pre-dosing tumor volume for each group of mice is plotted against the number of days of tumor growth since initiation of the treatment.

In data set [3] the test system is exocrine pancreatic tumor. The data set is described as follows: Treating a patient having pancreatic cancer with SGRM and nab-paclitaxel (Example 3, hypothetical). To be noted: 200 mg once a day for eight weeks with nab-paclitaxel 80 mg per square meter on days 1, 8, 15 of 28-day cycle; end of the treatment period. The data set is classed as in vivo, human. As for the experimental part: A typical pancreatic patient may complain of upper abdomen pain that typically radiates to the back. Such a patient may experience loss of appetite, nausea and vomiting episodes, and may suffer significant weight loss. A CT scan may show the presence of a tumor in the pancreas. The presence of an exocrine pancreatic tumor may be confirmed by histological analysis. Blood ACTH level may be within the normal range for ACTH. Such a patient may be treated with CORT125134 at a dose of 200 mg once a day for eight weeks in combination with an intravenous infusion of nab-paclitaxel at a dose of 80 mg per square meter of body-surface area as an intravenous infusion over 30 minutes on days 1, 8, and 15 of every 28-day cycle. Tumor load may be monitored using enhanced MRI before, during and after such treatment. Imaging results may indicate that the size of the tumor gradually decreases; such reduction may be more than 50% at the end of the treatment period.

Entries after “also recorded” stand apart in the source; their conditions may differ.

Consider `Cn1cc(S(=O)(=O)N2CCC3=Cc4c(cnn4-c4ccc(F)cc4)C[C@]3(C(=O)c3cc(C(F)(F)F)ccn3)C2)cn1` [CORT125134, (R)-(1-(4-fluorophenyl)-6-((1-methyl-1H-pyrazol-4-yl)sulfonyl)-4,4a,5,6,7,8-hexahydro-1H-pyrazolo[3,4-g]isoquinolin-4a-yl)(4-(trifluoromethyl)pyridin-2-yl)methanone], for which, in data set [1] (daily 100 mg CORT125134 with nab-paclitaxel infusions weekly three out of four weeks per cycle, 8 months (8 cycles), one patient), the clinical response result is “partial response (PR); also recorded: sustained partial response”. The “tolerability of the treatment” value in data set [1] (daily 100 mg CORT125134 with nab-paclitaxel infusions, 8 months, one patient) is “tolerated the treatment reasonably well; also recorded: tolerated the treatment with CORT125134 and nab-paclitaxel well”. For the same molecule, in data set [1] (scanned again one month after the third month, daily 100 mg CORT125134 with nab-paclitaxel), the “tumor volume reduction compared to baseline volume (CT scans)” value is “approximately 40%”. Also, the “tumor volume reduction compared to baseline (scan)” value in data set [1] (seventh month of treatment, daily 100 mg CORT125134 with nab-paclitaxel, one patient) worked out at 40%. The “tumor volume reduction compared to start of study (CT scans)” value in data set [1] (third month/cycle of treatment, daily 100 mg CORT125134 with nab-paclitaxel, one patient) was “approximately 40%”. Besides, in data set [2], the “tumor growth (mean tumor volume compared to mean pre-dosing tumor volume), combination versus paclitaxel group” value is given as “superior to the paclitaxel group in reducing tumor growth” and the “tumor growth reduction, comparison among treatment groups” value was “most significant tumor growth reduction”. Moreover, the “reduction of the size of the tumor (enhanced MRI)” value in data set [3] is recorded as “more than 50%”.
Take `Cn1ncc(S(=O)(=O)N2CC[C@H]3Cc4c(cnn4-c4ccc(F)cc4)C[C@]3(C(=O)c3cc(C(F)(F)F)ccn3)C2)n1` [CORT125281, ((4aR,8aS)-1-(4-fluorophenyl)-6-((2-methyl-2H-1,2,3-triazol-4-yl)sulfonyl)-4,4a,5,6,7,8,8a,9-octahydro-1H-pyrazolo[3,4-g]isoquinolin-4a-yl)(4-(trifluoromethyl)pyridin-2-yl)methanone]: the “tumor growth (mean tumor volume compared to mean pre-dosing tumor volume), combination versus paclitaxel group” value in data set [2] is given as “superior to the paclitaxel group in reducing tumor growth”.
